Experimental data as given in patent US11426375B2, “Substituted bisphenyl butanoic ester derivatives as NEP inhibitors” (NOVARTIS AG, priority 2019, dated 2022).

Columns and labels:
[1] = parameters: species or system Sprague Dawley rats; settings: rat, in vivo, po, 10 mg/kg
Method: A parallel study design consisting of four groups with three animals per group was conducted to examine the pharmacokinetic properties of the compounds of the present disclosure.
The drugs were administered to each group are as follows: compound I-1 (Group 1), compound I-2 (Group 2), compound I-3 (Group 3), and AHU377 (sacubitril) (Group 4). Each animal received a single 10 mg/kg (5 ml/kg) oral gavage dose of the specified study drug. The animal weights ranged from […] at the beginning of the study. Compound I-1, compound I-2, compound I-3, and AHU377 were formulated in 0.5% methylcellulose (400 cp) and 0.1% Tween 80 (w,v) in water was used as the vehicle. Water bath sonication was applied to facilitate dispersing for all four study drugs. Blood samples for pharmacokinetics analysis were collected at t=0.25, 0.5, 1, 2, 4, 8, and 24 hours (±5%) post dose administration. Plasma was prepared by collecting whole blood samples into tubes containing EDTA and NaF (final concentrations: ˜1 mg/mL (K2EDTA) and ˜2 mg/mL (NaF)). These tubes were kept in an ice bath prior to centrifugation at approximately 2,000 rcf for 10 minutes at approximately 5° C. To each resultant plasma sample, 50% phosphoric acid (v/v) was added to achieve a final concentration of 1% (v,v).
[^13C4]-LBQ657 was added as an internal standard to the pharmacokinetic (PK) samples and calibration standards prior to analysis by LC-MS/MS. The LC-MS system consisted of an API6500+ mass spectrometer coupled to an Agilent 1290 HPLC system equipped with a CTC Pal autosampler. The mass spectrometer was operated in the positive ion mode with a TESI ion source.

[2] = Hygroscopicity, weight gain at 90% RH; format: physicochemical; settings: after exposure to 90% RH
Text: The weight gain of compound I-1 after exposure to 90% RH (relatively humidity) was 0.34%, while that of AHU377 under the same conditions was 3.4%. […] On the other hand, AHU377 is a wax-like solid, which needs to be properly processed before further pharmaceutical processing such as weighing, dispensing and filling.

## CCOC(=O)[C@H](C)C[C@@H](Cc1ccc(-c2ccccc2)cc1)NC(=O)CCC(=O)N[C@@H](CC(C)C)C(=O)O [Compound I-1, (4-(((2S,4R)-1-([1,1′-biphenyl]-4-yl)-5-ethoxy-4-methyl-5-oxopentan-2-yl)amino)-4-oxobutanoyl)-L-leucine]
[1]; male, Sprague-Dawley
  LBQ657 concentration-time profile: flattened relative to AHU377
  conversion to LBQ657: nearly complete conversion to LBQ657
[1]
  LBQ657 exposure (based on AUC values): did not decrease relative to that of AHU377
  tolerability: very well tolerated
[2]
  weight gain (hygroscopicity): 0.34%
